Test results from ChEMBL document CHEMBL1142434, “Novel prostaglandin D synthase inhibitors generated by fragment-based drug design” (J Med Chem, 2008).

Target: Hematopoietic prostaglandin D synthase (Homo sapiens, UniProt O60760)
Assay: Inhibition of glutathione-S-transferase activity of prostaglandin D2 synthase

Hematopoietic prostaglandin D synthase, sequence (O60760 whole entry): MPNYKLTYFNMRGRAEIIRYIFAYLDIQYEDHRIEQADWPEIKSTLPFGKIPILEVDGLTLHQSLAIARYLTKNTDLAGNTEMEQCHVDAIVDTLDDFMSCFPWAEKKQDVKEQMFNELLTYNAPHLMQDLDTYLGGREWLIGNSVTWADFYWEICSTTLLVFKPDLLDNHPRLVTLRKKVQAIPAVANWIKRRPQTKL

Row | SMILES | IC50 [µM]
1 | COc1ccc(-c2cnn(-c3ccccc3)c2N)cc1OC | 33
2 | Oc1c(Cl)cc(Cl)cc1-c1cc[nH]n1 | 17.4
3 | O=C1c2ccccc2-c2nnc(-c3ccc(O)cc3)cc21 | 3.8
4 | Cc1ccc(-c2cc3c(nn2)-c2ccccc2C3=O)cc1 | 3.8
5 | Cc1cc(C)c(-c2cc[nH]n2)[nH]1 | 26.4
6 | Cc1ccc(-c2cc[nH]n2)cn1 | 34.7
7 | COC(=O)c1ccc(-c2nnc(-c3ccncc3)[nH]2)nc1 | 1.5
8 | COc1ccc(C(=O)CBr)c2ccccc12 | 12.4
9 | CCOC(=O)c1cc(O)c(-c2ccccc2)nn1 | 45
10 | Cc1ccc(NC(=O)c2cc(-c3ccccc3)ns2)cc1NC(=O)c1cccc(CN2CCN(C)CC2)c1 | 0.075
11 | COc1ccccc1-c1csc(Nc2ccc(C(=O)O)cc2)n1 | 0.994

Test system: LAD2
Assay: Inhibition of PMA/ionomycin-induced PDG2 synthesis in human LAD2 cells
Type: functional, cell-based

Row | SMILES | EC50 [µM]
12 | c1ccc(-c2ncc(-c3cc[nH]n3)s2)cc1 | 1.7

Test system: not listed separately
Assay: Toxicity against PMA/ionomycin treated human LAD2 cells assessed as cellular viability
Type: cell-based

Row | SMILES | Activity
13 | c1ccc(-c2ncc(-c3cc[nH]n3)s2)cc1 | Non-toxic
